Test results: publication PMC12428237, “Study on the Calcium Transport-Promoting Property and Mechanism of the Peptide–Calcium Complex DEEENDQVK–Ca Based on a Caco-2 Monolayer Model” (Foods, 2025)
Where two headings read alike, the source gives them in different places.

Key:
Caco-2 monolayer [1] = details: cited from earlier work; for increase of intestinal calcium transport compared with the control group: within 30 min
Protocol: With 1~2 mg/mL of DK, the tran ... || This study’s results align with earlier findings regarding peptide–calcium complexes.

Caco-2 monolayers = details: 120 min; cited from earlier work
Protocol: To assess component changes in DK–Ca after 120 min of calcium-promoting transport, solutions collected from the AP and BL sides of the monolayer were subjected to RP-HPLC analysis.

[2] = cited from earlier work
Source text: Dietary calcium supplementation offers a direct solution to calcium deficiency. However, traditional calcium supplements (e.g., calcium carbonate) suffer from limitations such as low bioavailability and gastrointestinal irritation, which lead to reduced efficacy. […] This enhanced performance is primarily attributed to the peptide ... || This study’s results align with earlier findings regarding peptide–calcium complexes.

Caco-2 monolayer [3] = assay: Fluo-4 AM fluorescence imaging of intracellular calcium influx; type: cell-based, human; details: samples containing 150 μg/mL calcium, 24 h, Fluo-4 AM 4 μmol/L, confocal microscope
Protocol: Fluorescence imaging based on intracellular calcium influx was conducted to assess the calcium transport-promoting effect in the Caco-2 monolayer following the method of Men et al.. Log-phase cells were seeded at 1.5 × 10^5 cells/well in 35 mm laser confocal dishes and gently agitated to ensure uniform distribution. Cultures were maintained at 37 °C in 5% CO2 with daily medium replacement until confluent monolayers formed. Subsequently, CaCl2, DK + CaCl2, and DK–Ca solutions (each containing 150 μg/mL calcium) were added separately. The group without an added sample served as the control group. Following 24 h of incubation, the cells were washed thrice with prewarmed calcium-/magnesium-free HBSS buffer (pH 7.2). Under light-protected conditions, 200 µL of Fluo-4 AM (4 μmol/L) was applied to cover the cells. Following 30 min incubation at 37 °C and subsequent washes, cells were dark-adapted for 10 min at room temperature for de-esterification. Imaging was conducted using a confocal microscope (excitation at 496 nm, Zeiss LSM980 Airyscan2, Carl Zeiss, Germany ), followed by quantification of the fluorescence intensity with ImageJ 1.54 g software.

Caco-2 monolayer [4] = assay: Effect of dietary components (vitamin D3, phytic acid) on calcium transport in Caco-2 monolayer; type: cell-based, human; details: 120 min, control without dietary component, n = 3
Protocol: Vitamin D3 (0.5 μmol/L, dissolved in 0.1% ethanol) or phytic acid (1.8 mM, with a of phytic acid/calcium molar ratio of 0.24) was added to the AP side to evaluate the effect of dietary components on calcium transport. The group without an added dietary component served as the control group. After 120 min incubation, the BL side solution was collected for calcium transport analysis.

Caco-2 monolayer [5] = assay: Calcium transport assay in Caco-2 monolayer model; type: cell-based, human; details: 7.5 mM CaCl2 on AP side, AP to BL, HBSS pH 7.4, 37 °C, 120 min, calcium colorimetric kit 575 nm; mean ± SD, n = 3
Protocol: (§1) Caco-2 cells (passages 15–30) were seeded at 1 × 10^5 cells/mL in Transwell chambers (12 mm, 0.4 μm pores, polycarbonate membrane, 1.12 cm^2 area) to establish a Caco-2 monolayer model. The culture medium (0.5 mL in the apical and 1.5 mL in the basolateral) was refreshed every 48 h (first week), then daily (next two weeks). The integrity of the Caco-2 cell monolayer model was verified by the following multiple indicators: Transepithelial electrical resistance (TEER) was monitored every 48 h using an epithelial voltohmmeter (RE1600, Beijing Jingong Hongtai Technology Co., Ltd., Beijing, China). Alkaline phosphatase (ALP) activity was measured on days 8, 12, 14, 16, and 21 after inoculation utilizing an ALP assay kit, following the manufacturer’s protocol. Transepithelial permeability was evaluated using sodium fluorescein following the method of Qiu et al..
Caco-2 monolayer models with a TEER value exceeding 500 Ω·cm^2 are permitted for calcium transport studies. Following three sequential washes with Hank’s balanced salt solution (HBSS; calcium/magnesium-free, pH 7.4), monolayers were equilibrated at 37 °C for 30 min. Afterward, the Transwell chambers were moved to fresh receiver plates for transport assays.
Concentration-dependent CaCl2 transport assay: 0.5 mL of CaCl2 solution (1.5~10 mM) was added to the apical (AP) side. The basolateral (BL) side contained 1.5 mL prewarmed HBSS. After 120 min incubation at 37 °C and 5% CO2, the BL side solution was collected for calcium transport analysis.
Time-dependent CaCl2 transport assay: The AP side contained 0.5 mL of 7.5 mM CaCl2 solution, and the BL side 1.5 mL prewarmed HBSS. At designated intervals (30~180 min), 1 mL BL side solution was collected and replaced with equal volumes of fresh HBSS buffer to maintain consistency.
Different concentrations of DK solution (0.5~2 mg/mL, 0.5 mL) containing 7.5 mM CaCl2, or 0.5 mL of DK–Ca solution (0.5~2 mg/mL), were added to the AP side. The BL side contained 1.5 mL prewarmed HBSS. The control group contained 7.5 mM CaCl2 alone on the AP side. At designated intervals (30~180 min), 1 mL BL side solution was collected and replaced with equal volumes of fresh HBSS buffer to maintain consistency.
Calcium concentration in the collected sample was measured using a calcium colorimetric assay kit at 575 nm. Transported calcium was calculated as follows:(1) Tn=1.5Cn+1×∑k=1n-1Ck […]

Caco-2 cells = assay: MTT cell viability assay; type: cell-based, human; details: 24 h, concentration range 0~5 mg/mL, n = 3
Protocol: Caco-2 cells were maintained in complete DMEM medium containing 20% (v/v) FBS, 1% non-essential amino acids, and penicillin-streptomycin (100 U/mL−100 μg/mL) at 37 °C under 5% CO2 atmosphere, with medium replacement every 48 h. At 80–90% confluency, cells were seeded into 96-well plates (1 × 10^4 cells/well). After 24 h of incubation, the original medium was exchanged for a new solution containing CaCl2 (0~5 mg/mL), DK (0~5 mg/mL), DK + CaCl2 (1:1 w/w, 0~5 mg/mL), DK–Ca (0~5 mg/mL), 2-APB (0~75 μmol/L), cytochalasin D (0~2 μg/mL), and mβCD (0~5 mmol/L). After 24 h of incubation, the cell viability was assessed by MTT [21].

Caco-2 monolayer [6] = assay: Transepithelial permeability of sodium fluorescein (monolayer integrity); type: in vitro ADME, human; details: Transwell, after 21 days of differentiation, mean ± SD
Protocol: as §1

Question: Which “increase of intestinal calcium transport compared with the control group” value (shortened to “increase of intestinal calcium transport”) (Caco-2 monolayer [1]) does the source give for “FDHIVY [tilapia collagen-derived peptide]” here?
Answer: The value was 202%.

Question: Which “cleavage after culture in Caco-2 monolayers” value (Caco-2 monolayers) does the source give for YQEPVPVRGPFPIIV here?
Answer: Its value is “cleaved into […] and […]”.

Question: For VLPVPQK, which calcium-binding capacity [2] is on record?
Answer: Its calcium-binding capacity is 129.46 mg/g.

Question: With “DHTKE [DHTKE–calcium complex, egg white hydrolysate-derived DHTKE–calcium complex]” as the compound, how does the “increase of transported calcium compared to the calcium-free control group” value (Caco-2 monolayer [1]) read?
Answer: Its value is “seven-fold”.

Question: For `[Ca+2].[Cl-].[Cl-]` [CaCl2], which “fluorescence intensity (intracellular calcium influx) compared to the control group” value (Caco-2 monolayer [3]) is on record?
Answer: The value was “significantly increased”.

Question: And the “decrease of calcium absorption by phytic acid” value (Caco-2 monolayer [1])?
Answer: The value was 79.86%.

Question: And the “reduction of transported calcium by phytic acid compared to the control group” value (Caco-2 monolayer [4]; phytic acid 1.8 mM (phytic acid/calcium molar ratio 0.24) on AP side)?
Answer: Its value is 49.11%.

Question: What about the “increase of transported calcium by vitamin D3 compared to the control group” value (Caco-2 monolayer [4]; vitamin D3 0.5 μmol/L on AP side) of the same compound?
Answer: Its value is 22.68%.

Question: And the transported calcium (Caco-2 monolayer [5])?
Answer: The transported calcium was 27.55 ± 1.20 μg/well.

Question: For `C=C1[C@@H](C)[C@H]2[C@H](Cc3ccccc3)NC(=O)[C@]23[C@H](OC(C)=O)/C=C/[C@@](C)(O)C(=O)[C@@H](C)C/C=C/[C@H]3[C@@H]1O` [cytochalasin D, Cytochalasin D], which “cytotoxicity to Caco-2 cells” value (Caco-2 cells) is on record?
Answer: Its value is “no cytotoxicity”.

Question: Which calcium-binding capacity [2] does the source give for LVFL here?
Answer: The calcium-binding capacity was 79.50 mg/g.

Question: Which “increase of intestinal calcium transport” value (Caco-2 monolayer [1]) does the source give for “YQEPVIAPKL [tilapia collagen-derived peptide]” here?
Answer: The value was 130%.

Question: Which calcium-binding capacity [2] does the source give for YGTGL here?
Answer: Its calcium-binding capacity is 76.03 mg/g.

Question: Which “increase of intestinal calcium transport” value (Caco-2 monolayer [1]) does the source give for “GPAGPHGPVG [tilapia collagen-derived peptide]” here?
Answer: Its value is 89%.

Question: What does the source list for “AHVGMSGEEPE-Ca [AHV-Ca, rice peptide–calcium complex]”?
Answer: transported calcium (Caco-2 monolayer [1]; Caco-2 monolayers): 61.75 ± 13.23 μg/well; transported calcium, fold versus CaCl2 (Caco-2 monolayer [1]; Caco-2 monolayers): 2.16 fold

Question: What does the source list for `O=C([O-])c1ccccc1-c1c2ccc(=O)cc-2oc2cc([O-])ccc12.[Na+].[Na+]` [sodium fluorescein]?
Answer: apparent permeability coefficient (Papp) (Caco-2 monolayer [6]; 30 min): 7.17±0.22 ×10^-7 cm/s; apparent permeability coefficient (Papp) (Caco-2 monolayer [6]; 60 min): 7.47±0.25 ×10^-7 cm/s; apparent permeability coefficient (Papp) (Caco-2 monolayer [6]; 90 min): 7.56±0.64 ×10^-7 cm/s; apparent permeability coefficient (Papp) (Caco-2 monolayer [6]; 120 min): 8.35 ± 0.15 ×10-7 cm/s

Question: With “AHVGMSGEEPE [rice protein-derived peptide]” as the compound, how does the calcium-binding capacity [2] read?
Answer: The calcium-binding capacity was 55.69 mg/g.
